From patent publication US6596271B2, “Insect control method with genetically engineered biopesticides” (priority 1996, dated 2003)
Marks after values point to notes of the source that are not given here.

Legend:
[1] = test system: neonate larvae of H. virescens; assay: Time-response of neonate larvae to NPVs with low concentrations of classical insecticides (droplet feeding, treated vials); type: in vivo, Heliothis virescens; conditions: 2000 PIBs and/or LC10-LC20 (24 h) insecticide
Excerpt: For example, two of the compounds studied were pyrethroids, […]. In our study we found a subadditive response when low rates of allethrin or cypermethrin were combined with wild-type AcNPV.

[2] = test system: neonate larvae of H. virescens; type: in vivo, Heliothis virescens; conditions: at the μg insecticide/vial of Table 4
Excerpt: As indicated previously, these studies have emphasized the effects of combinations of viral and chemical insecticides on LT50, but the same approaches could be applied to dose as well as time. […] In practice a variety of factors would influence the rates used, including the cost and availability of the biological and chemical pesticide, environmental concerns, level of resistant populations in the field, and other pest management considerations.
Two of the compounds studied were pyrethroids, allethrin (Type I pyrethroid) or cypermethrin (Type II pyrethroid). In our study we found a subadditive response when low rates of allethrin or cypermethrin were combined with wild-type AcNPV.

Row | Compound | Actual Kill Time (LT50, h) [1] | LT10 (h; 95% CL) [1] | LT50 (h; 95% CL) [1] | LT90 (h; 95% CL) [1] | % Mortality at 24 hours [2]
1 | Clc1ccc(C(c2ccc(Cl)cc2)C(Cl)(Cl)Cl)cc1 [DDT] | 96.7 h | 12.6 (3.90-23.8) h | 96.7 (73.5-165) h | 740 (318-10320) h | 18.8%
2 | CCCSP(=O)(OCC)Oc1ccc(Br)cc1Cl (centres unmarked) [Profenofos] | 401 h | 8.10 (2.61-17.5) h | 401 (260-676) h |  | 16.3%
3 | CC1(C)C(C=C(Cl)Cl)C1C(=O)OC(C#N)c1cccc(Oc2ccccc2)c1 (centres unmarked) [Cypermethrin] | 124 h | 17.1 (7.99-24.8) h | 124 (97.5-195) h | 902 (436-4190) h | 11.8%
4 | C=CCC1=C(C)C(OC(=O)C2C(C=C(C)C)C2(C)C)CC1=O (centres unmarked) [Allethrin] | 132 h | 17.3 (11.5-22.5) h | 132 (106-185) h | 1000 (552-2680) h | 14.0%
5 | CNC(=O)ON=C(C)SC [Methomyl] | 358 h | 4.84 (0.12-13.1) h | 358 (182-4070) h | 26563 (2870-1.25 × 10^8) h | 20.8%
6 | O=S1OCC2C(CO1)C1(Cl)C(Cl)=C(Cl)C2(Cl)C1(Cl)Cl (centres unmarked) [Endosulfan] | 73.3 h | 10.4 (3.75-17.3) h | 73.3 (61.0-90.3) h | 514 (296-1580) h | 17.5%
